The subject of this experiment is platelet aggregation induced by ADP in platelet rich plasma (PRP). Kind of experiment: Effect on platelet aggregation induced by adenosine diphosphate (ADP). The format is cell-based. The conditions noted are these: human PRP 3×10^8 platelets/ml; test compound in water, 2 minutes at 37° C.; ADP final 2.5 μM; aggregometer; read-out: IC50 (inhibition of ADP-induced platelet aggregation). The method, then: Test: Effect on Platelet Aggregation Induced by Adenosine Diphosphate (ADP)
Platelet rich plasma (PRP) which contains 3×10^8 platelets/ml was prepared from human blood. To the 225 μl of PRP, 25 μl of the solution of the test compound in water was added, and then stirred for 2 minutes at 37° C. To the solution 5 μl of ADP (final 2.5 μM) was added as an aggregation inducer. Aggregation was measured by using an aggregometor (NBS HEMA-TRACER 801). Activity of […] (test compound) was expressed as IC50 value, i.e., dose required for […] of platelet aggregation.

Molecules are shown by their SMILES. pIC50: −log10 of the molar value.

A word on the pIC50: it is the negative decadic logarithm of the IC50, by convention in mol/L. For `COC(=O)C(=O)N[C@@H](CNC(=O)[C@@H]1CCCN(C(=O)CCC2CCNCC2)C1)C(=O)O` [Example 25, N-[(3R)-1-{3-(4-piperidyl)-propionyl}-3-piperidylcarbonyl]-2(S)-methoxyoxalylamino-β-alanine], the pIC50 is 7.07.

Source of the values: US6812235B2, “Beta-alanine derivatives and their use as receptor anatgonists” (Fujisawa Pharmaceutical Co., Ltd., priority 2000, dated 2004).
